# Columns and labels:
# [1] = tested on: IICR (IP3 induced calcium release) in CHO cells; assay: Assay of IICR (IP3 induced calcium release)-inhibiting action; type: cell-based, Chinese hamster; conditions: CHO cells, 10 μM ATP; for inhibition at 10 µM / inhibition at 30 µM / inhibition at 100 µM: Cricetulus griseus, CHO, read-out: IICR level (percentage of inhibition)
# Summary of the method: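 CHO cell medium replaced with calcium-containing BSS; compound added 1 min later, then 10 μM ATP after a further 2 min. Percent inhibition of the ATP-evoked rise in intracellular calcium determined at each compound concentration.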
# [2] = tested on: SOCE (store operated calcium entry) in CHO cells; assay: Assay of SOCE (store operated calcium entry)-inhibiting action; type: cell-based, Chinese hamster; conditions: CHO cells, thapsigargin; for inhibition at 10 µM / inhibition at 30 µM / inhibition at 100 µM: Cricetulus griseus, CHO, read-out: SOCE level (percentage of inhibition)
# Summary of the method: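 CHO cells in calcium-free BSS received compound, then 1 μM thapsigargin 2 min later to deplete stores; after 9 min, 2 mM calcium chloride (final) added. Percent inhibition of the rise in intracellular calcium determined at various compound concentrations.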
SMILES,inhibition at 10 µM ([1]; test compound 10 μmol),inhibition at 30 µM ([1]; test compound 30 μmol),inhibition at 100 µM ([1]; test compound 100 μmol),inhibition at 10 µM ([2]; test compound 10 μmol),inhibition at 30 µM ([2]; test compound 30 μmol),inhibition at 100 µM ([2]; test compound 100 μmol),IICR level (percentage of inhibition) ([1]; test compound 10 μmol),IICR level (percentage of inhibition) ([1]; test compound 30 μmol),IICR level (percentage of inhibition) ([1]; test compound 100 μmol),SOCE level (percentage of inhibition) ([2]; test compound 10 μmol),SOCE level (percentage of inhibition) ([2]; test compound 30 μmol),SOCE level (percentage of inhibition) ([2]; test compound 100 μmol)
"O=C(CCNC(O)c1ccccc1)c1ccc(Br)s1 (stereo not drawn) [Example 353, 2-(1-hydroxy-1-phenylmethyl)aminoethyl-5-bromo-2-thienylketone]",60%,0%,20%,0%,0%,7%,,,,,,
"O=C(CCNCCN(CCO)CCC(=O)c1ccc(Br)s1)c1ccc(Br)s1 [Example 354, 2-(N-5-bromothionylethylaminoethyl-N-hydroxyethyl)aminoethyl-5-bromo-2-thienylketone]",0%,0%,60%,0%,10%,10%,,,,,,
"O=C(CCNC(c1ccccc1)C(O)c1ccccc1)c1ccc(Br)s1 (stereo not drawn) [Example 355, 2-(2-hydroxy-1,2-diphenyl-ethyl)aminoethyl-5-bromo-2-thienylketone]",0%,0%,50%,0%,16%,16%,,,,,,
"O=C(CCNC(CO)Cc1ccccc1)c1ccc(Br)s1 (stereo not drawn) [Example 357, 2-(N-hydroxy-1-benzylethyl)aminoethyl-5-bromo-2-thienylketone]",0%,0%,70%,0%,9%,47%,,,,,,
"O=C(CCNCCO)c1ccc(Br)s1 [Example 358, 2-(N-hydroxyethyl)aminoethyl-5-bromo-2-thienylketone]",,,,,,,0%,0%,70%,0%,4%,23%
"O=C(CCN(CCO)c1ccccc1)c1ccc(Br)s1 [Example 359, 2-(N-hydroxyethyl-N-phenyl)aminoethyl-5-bromo-2-thienylketone]",0%,0%,70%,0%,24%,57%,,,,,,
"CC(O)CNCCC(=O)c1ccc(Br)s1 (stereo not drawn) [Example 360, 2-(N-2-hydroxypropyl)aminoethyl-5-bromo-2-thienylketone]",0%,0%,70%,10%,0%,20%,,,,,,
"O=C(CCN1CCC(CCO)CC1)c1ccc(Br)s1 [Example 361, 2-(4-hydroxyethylpiperadino)ethyl-5-bromo-2-thienylketone]",22%,0%,19%,22%,2%,19%,,,,,,
"CCN(CO)CCC(=O)c1ccc(Br)s1 [Example 362, 2-(N-hydroxymethyl-N-ethyl)aminoethyl-5-bromo-2-thienylketone]",0%,0%,70%,11%,13%,23%,,,,,,
"CN1CCN(CCC(=O)c2ccc(Br)s2)CC1 [Example 363, 2-(N-methylpiperadino)ethyl-5-bromo-2-thienylketone]",0%,0%,70%,0%,0%,14%,,,,,,
"O=C(CCNCCc1cnc[nH]1)c1ccc(Br)s1 [Example 364, 2-(4-imidazolylethyl)aminoethyl-5-bromo-2-thienylketone]",0%,0%,40%,24%,49%,70%,,,,,,
